Here are results for one molecule from patent US4608338A, “Process for bioconversion-product recovery” (Celanese Corporation, priority 1982, dated 1986).

Series [1] can be described thus: solubility of muconic acid in acidified aqueous fermentation medium. Type of series: physicochemical. Particulars: pH of 1-2, 20° C. The procedure:
Under optimal conditions, the muconic acid accumulation limit can approach up to about 50 grams of muconic acid per liter of growth medium. The microbiological oxidation step of the present invention process normally is conducted at ambient temperatures up to about 31° C. The muconic acid at a concentration between about 10-45 grams/liter in the cell-free ammonia-neutralized aqueous fermentation medium is precipitated with sulfuric acid or phosphoric acid. The precipitated muconic acid (solubility at pH of 1-2, about 0.07% at 20° C.) is filtered, washed and dried. In a further embodiment of the present invention, the muconic acid is admixed with a solvent medium such as acetic acid (e.g., to form a 40 weight percent muconic acid/acetic acid slurry solution), and then treated under hydrogenation conditions to yield adipic acid.

Series [2] in a line: solubility of muconic acid at pH 1.0 (Example III B, precipitation from regular "NO" medium). Type of series: physicochemical. Here is the method:
To 500 ml of regular "NO" medium are added 15 grams of cis, cis-muconic acid. The pH of the solution is about […]. A 14.2 ml quantity of concentrated NH4 OH solution (15N) is added to adjust the pH to 6.2.
To the neutralized solution is added a 17 ml quantity of concentrated H2 SO4 solution, which lowers the pH of the solution to 0.99. White solids precipitate from the solution, and the solids are filtered, washed and recovered as muconic acid (quantitative recovery; solubility of muconic acid at pH 1.0 is 0.03 wt %).

Turning to `O=C(O)/C=C\C=C/C(=O)O` [muconic acid, cis, cis-muconic acid], the solubility entry in series [1] is listed as “about 0.07%”; in series [2], 0.03 wt %.
